Reference: patent publication US11267780B2, “Compound for modulating DDAH and ADMA levels, as well as methods of using thereof to treat disease” (THE TRUSTEES OF INDIANA UNIVERITY, priority 2018, dated 2022)
“Also recorded” adds a separate entry of the source.

Legend:
[1] = system: DDAH-1 protein; test: DDAH western blot analysis in human retinal microvascular endothelial cells; type: cell-based; conditions: 24 hours
Experimental: (§1) DDAH and Collagen western blot analysis. Human umbilical vein endothelial cells (HUVEC), retinal endothelial cells and vascular smooth muscle cells from Lonza were transferred to 6 well plates at a density of 4.0×10^5/well and incubated overnight. Various concentrations of test compounds were then added. After 24 hours, medium was removed, the cells were scraped and collected in 50 μL of lysis buffer containing 50 mM Tris-HCl, 0.25% deoxycholic acid, 1% NP-40, 1 mM EDTA and protease inhibitor cocktails. Cell extract was subjected to SDS polyacrylamide gel electrophoresis. Proteins from the 12% polyacrylamide gels were transferred to PVDF membranes for westerns and blotted with DDAH or collagen 1 antibodies from Abcam.
(§2) Expression of DDAH was determined in human pulmonary artery smooth muscle cells (FIG. 1A) and human retinal microvascular endothelial cells (FIG. 1B). Cells were treated with different concentrations of VN-317. After 24 hours, cells were extracted in lysis buffer as described under methods. Extracts were subjected to SDS gel electrophoresis. Proteins from SDS gel were transferred to PVDF membrane and for western blotting using DDAH-1 antibodies. […] Therese data illustrate differential modulation of DDAH by VN-317 in different cell types.

[2] = system: DDAH-1 protein; test: DDAH western blot analysis in human pulmonary artery smooth muscle cells; type: cell-based; conditions: 24 hours
Experimental: as §1, §2

[3] = system: monocrotalin induced PAH; test: Rat model of monocrotalin induced PAH; type: in vivo; conditions: 1 mg/kg s.c. once a day
Experimental: A rat model of monocrotalin induced PAH was used for in vivo studies. Male Sprague Dawley rats about 250 g were purchased from Charles river. PAH was induced by a single s.c. injection of 60 mg/kg monocrotalin. VN-317 (1 mg/kg) or vehicle was administered subcutaneously on day one and once a day thereafter. After 6 weeks, the disease development was determined by pulmonary artery (PA) pressure measurements, echocardiography, and histology. PA pressure was determined by right heart catheterization using a 1.4-F micromanometer-tipped Millar catheter with fluoroscopy guidance. Transthoracic echocardiography was performed using a GE vivid i with 5.0-13.0 MHz il2L-RS linear array transducer. Pulmonary artery acceleration time (PAAT) was measured using pulse-wave Doppler echocardiography with the sample volume centrally positioned in the PA distal to the pulmonary valve. M-mode was applied to measure the right ventricular cavity thickness during end diastole using the parasternal long-axis view obtained from the right side of the rat. Tissue and blood samples were collected at termination. Tissues were fixed in 10% formalin, embedded in paraffin, and then processed for histomorphometry. Macrophage in lung tissues were determined by immunostaining using CD68 antibodies.

[4] = system: collagen 1; test: Collagen western blot analysis in myofibroblast like smooth muscle cells; type: cell-based; conditions: in response to TGF-beta, 48 hours
Experimental: as §1
Cells were treated with VN-317 in the presence or absence of TGF-beta. After 48 hours, cells were extracted in 50 ul lysis buffer and cell extract was subjected to SDS gel electrophoresis. Proteins from the 12% polyacrylamide gels were transferred to PVDF membranes for westerns and blotted collagen 1a antibodies from Abcam.

[5] = system: DDAH promoter; test: DDAH promoter activation assay (DDAH promoter-Luciferase reporter); type: cell-based
Experimental: DDAH promoter activation assay. Activation of DDAH promoter was determined using a DDAH promoter-Luciferase reporter assay. DDAH promoter DNA sequence was cloned in pGL4.10 luciferase reporter plasmid. For transfection of HEK-293 cells, the cells were seeded in six well plates at a density of 2.0×10^5 cells/well. After 24 hours, the cells were transfected with the DDAH promoter plasmid by adding 200 ng DNA/well and incubated for 24 hours. Transfected cells were then transferred to 96 well plates at 50,000 cells/well and incubated overnight with various concentrations of the test compounds. The medium was removed from the wells and 20 μL of lysis reagent was added. After 5 min, 100 μL Luciferase assay reagent was added, and luminescence was measured.

[6] = after 6 weeks, echocardiography
[7] = Table 1, stilbene-based ADMA-modulating agents
[8] = Table 3, other ADMA-lowering agents
[9] = Table 2, ADMA-lowering agents including heterocycles

| SMILES | EC50 [5, 7] [nM] | EC50 [5, 9] [nM] | further results |
| --- | --- | --- | --- |
| Cc1cc(O)ccc1/C=C/c1cccc(C(=O)O)c1 [VN-317, (E)-3-(4-hydroxy-2-methylstyryl)benzoic acid] | 7 |  | DDAH-1 protein expression (western blot) [1]: reducing; also recorded: reduced; DDAH-1 protein expression (western blot) [2]: enhancing; also recorded: enhanced; inflammation in the lung (CD68 immuno-staining) ([3]; after 6 weeks): dramatic reduction; also recorded: reduced; pulmonary artery medial thickening (histology) ([3]; after 6 weeks): open artery; also recorded: reduced; pulmonary artery pressure (PAP) ([3]; after 6 weeks): significantly reduced; vascular disease in the lung ([3]; after 6 weeks): reduced; pulmonary artery blood acceleration time (PAAT) [3, 6]: increased; right ventricle cavity thickness [3, 6]: reduced; body weight loss ([3]; over 6 weeks): prevented; mortality ([3]; until week 6, N=6): none and reduced; collagen production (western blot) [4]: reduced |
| COc1ccc(/C=C/c2cccc(C(=O)O)c2)c(C)c1 [VN-333, (E)-3-(4-methoxy-2-methylstyryl)benzoic acid] | 1.8 |  |  |
| O=C(O)c1cccc(/C=C\c2ccccc2)c1 [VN-339, (Z)-3-styrylbenzoic acid] |  |  | EC50 nM [5, 7]: Ambiguous |
| COc1ccc(/C=C\c2cccc(C(=O)O)c2)c(C)c1 [VN-342, (Z)-3-(4-methoxy-2-methylstyryl)benzoic acid] | 81.5 |  |  |
| O=C(O)c1cccc([C@H]2C[C@@H]2c2ccccc2)c1 [VN-347, 3-((1S,2S)-2-phenylcyclopropyl)benzoic acid] |  |  | EC50 [5, 8]: 3.3 nM |
| O=C(O)c1cccc(/C=C/c2cocn2)c1 [VN-351, (E)-3-(2-(oxazol-4-yl)vinyl)benzoic acid] |  | 87 |  |
| O=C(O)c1cc(/C=C/c2ccccc2)ccc1O [VN-359, (E)-2-hydroxy-5-styrylbenzoic acid] | 0.16 |  |  |
| O=C(O)c1cccc(/C=C/c2cccc(OCCN3CCOCC3)c2)c1 [VN-362, (E)-3-(3-(2-morpholinoethoxy)styryl)benzoic acid] | 1.3 |  |  |
| O=C(O)c1cccc(/C=C/c2ccc(OCCN3CCOCC3)cc2)c1 [VN-363, (E)-3-(4-(2-morpholinoethoxy)styryl)benzoic acid] | 0.97 |  |  |
| O=C(O)c1cccc(/C=C/c2nccs2)c1 [VN-365, (E)-3-(2-(thiazol-2-yl)vinyl)benzoic acid] |  | 180 |  |
| O=C(O)c1cccc(/C=C/c2cscn2)c1 [VN-366, (E)-3-(2-(thiazol-4-yl)vinyl)benzoic acid] |  | 1370 |  |
| O=C(O)c1cccc(/C=C/c2cncs2)c1 [VN-367, (E)-3-(2-(thiazol-5-yl)vinyl)benzoic acid] |  | 1060 |  |
| O=C(O)c1cccc([C@@H]2C[C@@H]2c2ccccc2)c1 [VN-376, 3-((1R,2S)-2-phenylcyclopropyl)benzoic acid] |  |  | EC50 [5, 8]: 527 nM |
| O=C(O)c1cccc(/C=C\c2cocn2)c1 [VN-380, (Z)-3-(2-(oxazol-4-yl)vinyl)benzoic acid] |  | 0.17 |  |
| O=C(O)c1cccc(/C=C\c2cncs2)c1 [VN-386, (Z)-3-(2-(thiazol-5-yl)vinyl)benzoic acid] |  | 2.8 |  |
| O=C(O)c1cccc(/C=C\c2cccc(OCCN3CCOCC3)c2)c1 [VN-388, (Z)-3-(3-(2-morpholinoethoxy)styryl)benzoic acid] |  |  | EC50 nM [5, 7]: Ambiguous |

Continued, in another order:

| EC50 [5, 7] [nM] | EC50 [5, 9] [nM] | SMILES | further results |
| --- | --- | --- | --- |
| 18.6 |  | O=C(O)c1cccc(/C=C/c2ccc(O)cc2)c1 [VN-328, (E)-3-(4-hydroxystyryl)benzoic acid] |  |
| 8.7 |  | Cc1ccccc1/C=C/c1cccc(C(=O)O)c1 [VN-329, (E)-3-(2-methylstyryl)benzoic acid] |  |
| 53 |  | O=C(O)c1cccc(/C=C/c2ccccc2)c1 [VN-330, (E)-3-styrylbenzoic acid] |  |
|  | 58 | O=C(O)c1cccc(/C=C/c2cccnc2)c1 [VN-353, (E)-3-(2-(pyridin-3-yl)vinyl)benzoic acid] |  |
|  | 672 | O=C(O)c1cccc(/C=C/c2cccnc2)c1 [VN-354, (E)-3-(2-(pyridin-3-yl)vinyl)benzoic acid] |  |
|  | 651 | O=C(O)c1cccc(/C=C/c2ccncc2)c1 [VN-355, (E)-3-(2-(pyridin-4-yl)vinyl)benzoic acid] |  |
|  | 0.79 | O=C(O)c1cccc(/C=C/c2cccs2)c1 [VN-368, (E)-3-(2-(thiophen-2-yl)vinyl)benzoic acid] |  |
|  | 1.23 | O=C(O)c1cccc(/C=C/c2ccsc2)c1 [VN-369, (E)-3-(2-(thiophen-3-yl)vinyl)benzoic acid] |  |
| 1.4 |  | O=C(O)c1cccc(/C=C/c2ccc(Cl)cc2)c1 [VN-371, (E)-3-(4-chlorostyryl)benzoic acid] |  |
| 10.4 |  | O=C(O)c1cccc(/C=C\c2ccc(F)cc2)c1 [VN-372, (Z)-3-(4-fluorostyryl)benzoic acid] |  |
|  | 0.76 | O=C(O)c1cccc(/C=C\c2cccs2)c1 [VN-373, (Z)-3-(2-(thiophen-2-yl)vinyl)benzoic acid] |  |
| 3.9 |  | O=C(O)c1cccc(/C=C\c2ccc(Cl)cc2)c1 [VN-379, (Z)-3-(4-chlorostyryl)benzoic acid] |  |
|  | 0.73 | O=C(O)c1cccc(/C=C\c2cccnc2)c1 [VN-381, (Z)-3-(2-(pyridin-3-yl)vinyl)benzoic acid] |  |
|  | 1.7 | O=C(O)c1cccc(/C=C\c2ccncc2)c1 [VN-387, (Z)-3-(2-(pyridin-4-yl)vinyl)benzoic acid] |  |
| 3.4 |  | O=C(O)c1cccc(/C=C/c2ccc(F)cc2)c1 [VN-390, (E)-3-(4-fluorostyryl)benzoic acid] |  |
